Laboratory results reported in ChEMBL document CHEMBL1146648, “Development of l-3-aminotyrosine suitably protected for the synthesis of a novel nonphosphorylated hexapeptide with low-nanomolar Grb2-SH2 domain-binding affinity” (Bioorg Med Chem Lett, 2004).
Where a SMILES comes first, the peptide text is derived from it. Bridges are numbered along the chain shown (N, C = ends). [ ]: non-standard residue; d: D form. Tyr(3-NH2) = Nc1cc(C[C@H](N)C(=O)O)ccc1O; Gla = N[C@@H](CC(C(=O)O)C(=O)O)C(=O)O; Aad = N[C@@H](CCCC(=O)O)C(=O)O; Ac6c = NC1(C(=O)O)CCCCC1; Ava = NCCCCC(=O)O

Molecular target: Growth factor receptor-bound protein 2 (Homo sapiens, UniProt P62993)
Assay: Competitive binding affinity against Growth factor receptor bound protein 2 was assessed using SHC(pTyr-317) phospopeptide in biacore surface plasmon resonance (SPR) method

Structure (SMILES) | IC50 [µM]
CC(C)C[C@@H]1NC(=O)[C@H](CC(C(=O)O)C(=O)O)NC(=O)C[S+]([O-])C[C@@H](C(N)=O)NC(=O)CCCCNC(=O)[C@H](C(C)C)NC(=O)[C@H](CC(N)=O)NC(=O)C2(CCCCC2)NC(=O)[C@H](Cc2ccc(O)c(N)c2)NC1=O (stereo partly specified) | 0.05
CC(C)C[C@@H]1NC(=O)[C@H](CCCC(=O)O)NC(=O)C[S+]([O-])C[C@H](C(N)=O)NC(=O)CCCCNC(=O)[C@H](C(C)C)NC(=O)[C@H](CC(N)=O)NC(=O)C2(CCCCC2)NC(=O)[C@H](Cc2ccc(O)cc2)NC1=O (stereo partly specified) | 84.5
CC(C)C[C@@H]1NC(=O)[C@H](CCCC(=O)O)NC(=O)C[S+]([O-])C[C@@H](C(N)=O)NC(=O)CCCCNC(=O)[C@H](C(C)C)NC(=O)[C@H](CC(N)=O)NC(=O)C2(CCCCC2)NC(=O)[C@H](Cc2ccc(O)cc2)NC1=O (stereo partly specified) | 9.8

The remaining compounds from weak to strong by IC50, led by results:

IC50 [µM] | Structure (SMILES)
11.4 | CC(C)C[C@@H]1NC(=O)[C@H](CCCC(=O)O)NC(=O)CSC[C@@H](C(N)=O)NC(=O)CCCCNC(=O)[C@H](C(C)C)NC(=O)[C@H](CC(N)=O)NC(=O)C2(CCCCC2)NC(=O)[C@H](Cc2ccc(O)cc2)NC1=O ({CH2CO}-[Aad]LY[Ac6c]NV[Ava]C-NH2; thioether N-8)
1.08 | CC(C)C[C@@H]1NC(=O)[C@H](CC(C(=O)O)C(=O)O)NC(=O)C[S+]([O-])C[C@H](C(N)=O)NC(=O)CCCCNC(=O)[C@H](C(C)C)NC(=O)[C@H](CC(N)=O)NC(=O)C2(CCCCC2)NC(=O)[C@H](Cc2ccc(O)c(N)c2)NC1=O (stereo partly specified)
0.16 | CC(C)C[C@@H]1NC(=O)[C@H](CC(C(=O)O)C(=O)O)NC(=O)CSC[C@@H](C(N)=O)NC(=O)CCCCNC(=O)[C@H](C(C)C)NC(=O)[C@H](CC(N)=O)NC(=O)C2(CCCCC2)NC(=O)[C@H](Cc2ccc(O)c(N)c2)NC1=O ({CH2CO}-[Gla]L[Tyr(3-NH2)][Ac6c]NV[Ava]C-NH2; thioether N-8)
